Measurements from ChEMBL document CHEMBL4602680, “Dammarane-Type Triterpenoids from the Roots of Rhus chinensis and Their Preventive Effects on Zebrafish Heart Failure and Thrombosis” (J Nat Prod, 2020).
Calls of active or inactive are those of the source. The calls are words filed in the database; no cut-off is given here.

How the values were obtained:
Danio rerio [1] = organism: Danio rerio; experiment: Prevention of heart failure in verapamil treated zebrafish AB assessed as efficacy on heart dilation at 0.5 ug/ml preincubated for 4.5 hrs followed by verapamil treatment and measured after 30 mins relative to verapamil alone; type: functional
[2] = Toxicity in zebrafish assessed as induction of adverse effect at 0.5 ug/ml in presence of ponatinib; design: species or system Danio rerio; details: in vivo
Danio rerio [3] = organism: Danio rerio; experiment: Antithrombotic activity in ponatinib treated zebrafish AB assessed as preventive efficacy on thrombosis at 0.5 ug/ml incubated for 18 hrs by O-dianisidine staining based assay relative to ponatinib alone; type: functional
Danio rerio [4] = organism: Danio rerio; experiment: prevention of heart failure in verapamil treated zebrafish AB assessed as efficacy on cardiac output at 0.5 ug/ml preincubated for 4.5 hrs followed by verapamil treatment and measured after 30 mins relative to verapamil alone; type: functional
Danio rerio [5] = organism: Danio rerio; experiment: prevention of heart failure in verapamil treated zebrafish AB assessed as efficacy on venous congestion at 0.5 ug/ml preincubated for 4.5 hrs followed by verapamil treatment and measured after 30 mins relative to verapamil alone; type: functional
[6] = Toxicity in zebrafish assessed as induction of adverse effect at 0.5 ug/ml; design: species or system Danio rerio; details: in vivo
[7] = Toxicity in zebrafish assessed as induction of adverse effect at 0.5 ug/ml in presence of verapamil; design: species or system Danio rerio; details: in vivo
Danio rerio [8] = organism: Danio rerio; experiment: prevention of heart failure in verapamil treated zebrafish AB assessed as efficacy on heart rate at 0.5 ug/ml preincubated for 4.5 hrs followed by verapamil treatment and measured after 30 mins relative to verapamil alone; type: functional
Danio rerio [9] = organism: Danio rerio; experiment: prevention of heart failure in verapamil treated zebrafish AB assessed as efficacy on blood flow velocity at 0.5 ug/ml preincubated for 4.5 hrs followed by verapamil treatment and measured after 30 mins relative to verapamil alone; type: functional
Danio rerio [10] = organism: Danio rerio; experiment: Antithrombotic activity in ponatinib treated zebrafish AB assessed as preventive efficacy on thrombosis at 45 ug/ml incubated for 18 hrs by O-dianisidine staining based assay relative to ponatinib alone; type: functional
Danio rerio [11] = organism: Danio rerio; experiment: Prevention of heart failure in verapamil treated zebrafish AB assessed as efficacy on heart dilation preincubated for 4.5 hrs followed by verapamil treatment and measured after 30 mins; type: functional, organism-based
Danio rerio [12] = organism: Danio rerio; experiment: prevention of heart failure in verapamil treated zebrafish AB assessed as efficacy on blood flow velocity at 0.8 ug/ml preincubated for 4.5 hrs followed by verapamil treatment and measured after 30 mins relative to verapamil alone; type: functional
Danio rerio [13] = organism: Danio rerio; experiment: prevention of heart failure in verapamil treated zebrafish AB assessed as efficacy on venous congestion at 0.8 ug/ml preincubated for 4.5 hrs followed by verapamil treatment and measured after 30 mins relative to verapamil alone; type: functional
Danio rerio [14] = organism: Danio rerio; experiment: prevention of heart failure in verapamil treated zebrafish AB assessed as efficacy on heart rate at 0.8 ug/ml preincubated for 4.5 hrs followed by verapamil treatment and measured after 30 mins relative to verapamil alone; type: functional
Danio rerio [15] = organism: Danio rerio; experiment: prevention of heart failure in verapamil treated zebrafish AB assessed as efficacy on cardiac output at 0.8 ug/ml preincubated for 4.5 hrs followed by verapamil treatment and measured after 30 mins relative to verapamil alone; type: functional
Danio rerio [16] = organism: Danio rerio; experiment: Prevention of heart failure in verapamil treated zebrafish AB assessed as efficacy on heart dilation at 0.8 ug/ml preincubated for 4.5 hrs followed by verapamil treatment and measured after 30 mins relative to verapamil alone; type: functional
[17] = Toxicity in zebrafish assessed as effect on blood flow at 0.5 ug/ml in presence of verapamil; design: species or system Danio rerio; details: in vivo
[18] = Toxicity in zebrafish assessed as effect on blood flow at 0.5 ug/ml in presence of ponatinib; design: species or system Danio rerio; details: in vivo
Danio rerio [19] = organism: Danio rerio; experiment: Prevention of heart failure in verapamil treated zebrafish AB assessed as efficacy on heart dilation at 10 ug/ml preincubated for 4.5 hrs followed by verapamil treatment and measured after 30 mins relative to verapamil alone; type: functional
Danio rerio [20] = organism: Danio rerio; experiment: prevention of heart failure in verapamil treated zebrafish AB assessed as efficacy on cardiac output at 10 ug/ml preincubated for 4.5 hrs followed by verapamil treatment and measured after 30 mins relative to verapamil alone; type: functional
Danio rerio [21] = organism: Danio rerio; experiment: prevention of heart failure in verapamil treated zebrafish AB assessed as efficacy on venous congestion at 10 ug/ml preincubated for 4.5 hrs followed by verapamil treatment and measured after 30 mins relative to verapamil alone; type: functional
Danio rerio [22] = organism: Danio rerio; experiment: prevention of heart failure in verapamil treated zebrafish AB assessed as efficacy on blood flow velocity at 10 ug/ml preincubated for 4.5 hrs followed by verapamil treatment and measured after 30 mins relative to verapamil alone; type: functional

Compound	Activity (Danio rerio [1])	Activity [2]	Activity (Danio rerio [3])	Activity (Danio rerio [4])	Activity (Danio rerio [5])	Activity [6]	Activity [7]	Activity (Danio rerio [8])	Activity (Danio rerio [9])	other results
C=C([C@@H]1CC=C(C)C(=O)O1)[C@@H]1CC[C@]2(C)[C@@H]1CC[C@@H]1[C@@]34CO[C@](O)([C@@H](O)C3)C(C)(C)[C@@H]4CC[C@]12C	73%	Non-Toxic	76%	22%	31%	Non-Toxic	Non-Toxic	57%	27%	
CC(=O)Oc1ccccc1C(=O)O [ASPIRIN]										Activity (Danio rerio [10]): 86%
C=C([C@@H]1CC[C@]2(C)[C@@H]1CC[C@@H]1[C@]34CC[C@@](O)(OC3)C(C)(C)[C@@H]4CC[C@]12C)[C@@H]1OC(=O)C(C)=C[C@H]1O	63%	Non-Toxic	10%	64%	59%	Non-Toxic	Non-Toxic	54%	65%	
C=C(CCC=C(CO)CO)[C@@H]1CC[C@]2(C)[C@@H]1CC[C@@H]1[C@@]3(C)CCC(=O)C(C)(C)[C@@H]3CC[C@]12C		Non-Toxic				Non-Toxic	Non-Toxic			Activity (Danio rerio [11]): inactive
C[C@H]1O[C@@H](O[C@H]2[C@@H](O)C[C@H](O[C@H]3[C@@H](O)C[C@H](O[C@H]4CC[C@@]5(C)[C@H](CC[C@@H]6[C@@H]5C[C@@H](O)[C@]5(C)[C@@H](C7=CC(=O)OC7)CC[C@]65O)C4)O[C@@H]3C)O[C@@H]2C)C[C@H](O)[C@@H]1O [DIGOXIN]	53%			40%	73%				28%	Activity (Danio rerio [12]): 38%; Activity (Danio rerio [13]): 67%; Activity (Danio rerio [14]): 52%; Activity (Danio rerio [15]): 41%; Activity (Danio rerio [16]): 68%
NS(=O)(=O)c1cc2c(cc1Cl)NCNS2(=O)=O [HYDROCHLOROTHIAZIDE]	56%			53%	60%				33%	
C/C(=C/CC/C(CO)=C1\CC[C@]2(C)[C@@H]1CC[C@@H]1[C@@]3(C)CCC(=O)C(C)(C)[C@@H]3CC[C@]12C)CO		Non-Toxic				Non-Toxic	Non-Toxic			Activity (Danio rerio [11]): inactive
C=C([C@@H]1CC=C(C)C(=O)O1)[C@@H]1CC[C@]2(C)[C@@H]1CC[C@@H]1[C@]34CC[C@@](O)(OC3)C(C)(C)[C@@H]4CC[C@]12C						Non-Toxic				Activity [17]: Toxic; Activity [18]: Toxic
CCCCC1=NC2(CCCC2)C(=O)N1Cc1ccc(-c2ccccc2-c2nnn[nH]2)cc1 [IRBESARTAN]	30%			25%	36%				15%	
C=C(CC/C=C(/C)C(=O)O)[C@@H]1CC[C@]2(C)[C@@H]1CC[C@@H]1[C@]34CC[C@@](O)(OC3)C(C)(C)[C@@H]4CC[C@]12C	65%	Non-Toxic	24%	72%	62%	Non-Toxic	Non-Toxic	77%	83%	
C=C([C@@H]1CC=C(C)C(=O)O1)[C@@H]1CC[C@]2(C)[C@@H]1CC[C@@H]1[C@@]3(C)CCC(=O)C(C)(C)[C@@H]3CC[C@]12C	55%	Non-Toxic	65%	41%	23%	Non-Toxic	Non-Toxic	27%	67%	
C=C([C@@H]1CC=C(C)C(=O)O1)[C@@H]1CC[C@]2(C)[C@@H]1CC[C@@H]1[C@@]34CO[C@](O)(C[C@H]3O)C(C)(C)[C@@H]4CC[C@]12C	66%	Non-Toxic	68%	58%	51%	Non-Toxic	Non-Toxic	60%	65%	
COCCc1ccc(OCC(O)CNC(C)C)cc1 (configuration not stated) [METOPROLOL]	34%			35%	29%				17%	
CCOC(=O)[C@H](CCc1ccccc1)N[C@@H](C)C(=O)N1CCC[C@H]1C(=O)O [ENALAPRIL]										Activity (Danio rerio [19]): 31%; Activity (Danio rerio [20]): 34%; Activity (Danio rerio [21]): 34%; Activity (Danio rerio [22]): 26%
